The subject of data set [1] is mice. Put plainly: Overall behavior and reactivities in mice. The data set is classed as in vivo. The note with it: i.p. On the procedure: (§1) The results of toxicological and neuropsychopharmacological tests which were carried out with the products according to the invention have been summarized below. In these tests, solutions of the said products in distilled water were administered intraperitoneally in a volume of 20 ml/kg to male mice and in a volume of 5 ml/kg to male rats.
(§2) Groups of 3 animals are observed before and then 0.25 h, 0.50 h, 1 h, 2 h, 3 h and 24 h after the administration of CRL 41 378. The following observations are made:
(§3) Groups of 3 animals are observed before and then 0.25 h, 0.50 h, 1 h, 2 h, 3 h and 24 h after the administration of CRL 41 329.

For data set [2], the system named is hypothermia, righting behavior and stereotypies induced by apomorphine. Put plainly: Interaction with apomorphine in mice. The data set is classed as in vivo. The note with it: i.p. As for the experimental part:
as §1
CRL 41 378 is administered to groups of 6 mice 30 minutes before the subcutaneous injection of 1 or 16 mg/kg of apomorphine.

For data set [3], the system named is central nervous system (CNS). Put plainly: Neuropsychopharmacological profile (conclusions of the tests). In kind it is in vivo, mice and rats. On the procedure:
as §1

Data set [4] deals with mice. Put plainly: Motility reduced by habituation to the enclosure. In kind it is in vivo. The note with it: i.p. As for the experimental part:
as §1
After they have stayed in the actimeters for 18 hours, the mice (6 per dose, 12 control animals) receive CRL 41 378. They are immediately returned to their respective enclosures and, half an hour later, their motility is recorded for 30 minutes.

Data set [5] deals with mice. Put plainly: Spontaneous motility (actimeter). Conditions: i.p. The data set is classed as in vivo. On the procedure: as §1
0.5 h after they have received CRL 41 378, the mice (6 per dose, 12 control animals) are placed in an actimeter, where their motility is recorded for 30 minutes.

The test system of data set [6] is mice. Put plainly: Behavioral despair (forced immersion). The data set is classed as in vivo. The note with it: mice which have been forcibly immersed, i.p.; hydrochloride. On the procedure: as §1
Half an hour after they have received CRL 41 378, groups of 6 mice are placed in a beaker filled with water to a height of 6 cm. The total period of immobility between the 2nd and 6th minutes following immersion is noted.

The subject of data set [7] is mice. Put plainly: Motility reduced by hypoxic aggression (acute hypobaric anoxia). The data set is classed as in vivo. Conditions: i.p. On the procedure:
In these tests, solutions of the said products in distilled water were administered intraperitoneally in a volume of 20 ml/kg to male mice and in a volume of 5 ml/kg to male rats.

In data set [8] the test system is hypothermia and ptosis induced by reserpine. Put plainly: Interaction with reserpine. The note with it: mice, i.p.; reserpine 2.5 mg/kg. In kind it is in vivo. On the procedure: as §1
Four hours after the intraperitoneal injection of 2.5 mg/kg of reserpine, groups of 12 mice receive CRL 41 378.

The subject of data set [9] is mice. Put plainly: Electric shock. The data set is classed as in vivo. Conditions: i.p. On the procedure:
as §1
The test is performed on groups of 10 mice 30 minutes after the administration of CRL 41 378.

Data set [10] relates to hypothermia, trembling and peripheral cholinergic symptoms induced by oxotremorine. Put plainly: Interaction with oxotremorine. The note with it: mice, i.p.; oxotremorine 0.5 mg/kg. In kind it is in vivo. As for the experimental part: as §1
CRL 41 378 is administered to groups of 6 mice 0.5 h before the intraperitoneal injection of 0.5 mg/kg of oxotremorine.

For data set [11], the system named is mice. Put plainly: Intergroup aggressiveness. The data set is classed as in vivo. The note with it: mice, i.p. On the procedure: as §1
After they have stayed for 3 weeks in the two halves of a cage divided by an opaque partition, groups of 3 mice receive CRL 41 378. Half an hour later, the two groups from the same cage are brought together by removal of the partition and the number of fights which occur in 10 minutes is noted.

The next data set has as its system rats. Put plainly: Overall behavior and reactivities in rats. The note with it: i.p. The data set is classed as in vivo. As for the experimental part:
as §1, §2, §3

The subject of the next data set is male mice. Put plainly: Acute toxicity, intraperitoneal (LD0, LD30, LD60, LD100). In kind it is in vivo. The note with it: intraperitoneal. As for the experimental part: as §1
Data set [12] concerns trembling and head twitches induced by 5-hydroxytryptophan (5-HTP). Put plainly: Interaction with 5-hydroxytryptophan in association with an MAOI (nialamide). The note with it: for all the effects of 5-HTP: reference substances, in the presence of an MAOI; for head twitches: i.p., nialamide + (±)-5-HTP, male mice; for trembling: reference β-adrenergic stimulants, 5-HTP + MAOI. The data set is classed as in vivo, male mice. On the procedure:
The purpose of the procedure used is to investigate the activity of each product according to the invention as regards the trembling induced by 5-hydroxytryptophan (5-HTP) in association with an MAOI (in this case nialamide).
Each test product, in solution in distilled water, is administered intraperitoneally in a volume of 20 ml/kg to male mice.
Groups of 10 mice receive nialamide (20 mg/kg, administered gastrically) at time T-18 h, each test product at time T-0.5 h and then (±)-5-HTP (20 mg/kg, administered intraperitoneally) at time T. Immediately after the injection of the (±)-5-HTP, the mice are individually placed in transparent plastic boxes. The generalized trembling, the partial trembling and the head twitches are noted on a yes/no basis for 2 h.

“Also recorded” adds a separate entry of the source.

`CN1C=NCC(c2ccccc2)C1.Cl` (stereo not drawn) [CRL 41 337, 1-methyl-5-phenyl-1,4,5,6-tetrahydropyrimidine hydrochloride]: in the data set on mice [1] (128 mg/kg), the “overall behavior and reactivities” value was “moderate hypothermia (-1.6 °C one hour after administration) for 3 h”. In the data set on mice [1] (128 mg/kg, one hour after administration), the moderate hypothermia was -1.6 °C. The “overall behavior and reactivities” value with mice [1] (2 to 32 mg/kg) was “no distinct modification of the behavior and reactivities compared with the control animals”. In data set [2], the “action on hypothermia induced by apomorphine” value is “antagonism of the hypothermia induced by apomorphine, reserpine and oxotremorine”. Moreover, in data set [3] (i.p.), the antidepressant effects result is given as “antidepressant effects”, the peripheral anticholinergic activity entry is listed as “no anticholinergic action” and the stimulant effects result is “no stimulation of the spontaneous motor activity”. In data set [3] (i.p., hydrochloride), the “peripheral α-adrenergic stimulant effects” value is “peripheral α-adrenergic stimulant effects; also recorded: mydriasis in rats” and the sedative effects entry is “sedative effects; also recorded: hypothermia”. The overall neuropsychopharmacological profile entry in data set [3] (summary, hydrochloride) is “acts principally as an antidepressant; also recorded: resemble those of β-adrenergic stimulants”. Moreover, in the data set on mice [4], the “resumption in the motor activity of mice accustomed to their enclosure” value is given as “a resumption in the motor activity of mice accustomed to their enclosure”. Also, the spontaneous motor activity entry in the data set on mice [5] was “a decrease in the motor activity”. Further, the period of immobility entry with mice [6] was “no modification of the period of immobility due to despair; also recorded: no effect on the immobility due to despair”. In the data set with mice [7], the “motor recovery after acute hypobaric hypoxia” value is “at high doses, CRL 41 337 paradoxically causes an improvement in the motor recovery of mice after acute hypobaric hypoxia”. Moreover, in data set [8], the “action on hypothermia induced by reserpine” value was “antagonism of the hypothermia induced by apomorphine, reserpine and oxotremorine”; the “action on ptosis induced by reserpine” value is “antagonism of the ptosis induced by reserpine”. For the same compound, the “lethal effects of electric shock” value in the data set with mice [9] is “at a high dose, CRL 41 337 causes aggravation of the lethal effects of electric shock”. In addition, the “action on hypothermia induced by oxotremorine” value in data set [10] is “antagonism of the hypothermia induced by apomorphine, reserpine and oxotremorine”. In the data set on mice [11], the “intergroup aggressiveness (number of fights)” value is recorded as “a decrease in the intergroup aggressiveness”. Further, the “overall behavior and reactivities” value in the data set with rats (1 and 4 mg/kg) was “no distinct modification of the behavior and reactivities compared with the control animals”. Moreover, in the data set on rats (16 and 64 mg/kg), the “overall behavior and reactivities” value is listed as “mydriasis”. Besides, in the data set on male mice, the “LD0 (maximum non-lethal dose)” value is on record as “greater than 256 mg/kg”, the LD60 result was “about 500 mg/kg” and the “LD100 (minimum dose lethal to all the animals)” value was “less than or equal to 1000 mg/kg”.

For `CC(N)Cc1ccccc1` (stereo not drawn) [amphetamine, reference compound], the “all the effects of 5-HTP” value in data set [12] is given as “potentiate all the effects of 5-HTP in the presence of an MAOI”.

On to `CNCCCN1c2ccccc2CCc2ccccc21` [desipramine, reference compound], for which the “all the effects of 5-HTP” value in data set [12] was “potentiate all the effects of 5-HTP in the presence of an MAOI”.

Consider `CCNC(C)Cc1cccc(C(F)(F)F)c1` (stereo not drawn) [fenfluramine, reference compound], for which, in [12], the “all the effects of 5-HTP” value is on record as “potentiate all the effects of 5-HTP in the presence of an MAOI”.

In the case of `CC(Cc1ccc(O)cc1)NCC(O)c1cc(O)cc(O)c1` (stereo not drawn) [fenoterol, reference compound], in data set [12], the head twitches result is listed as “moderate potentiation of the head twitches” and the trembling result was “distinct potentiation of the trembling”.

In the case of `CC(C)NCC(O)c1ccc(O)c(O)c1` (stereo not drawn) [isoprenaline, reference compound], in data set [12], the head twitches result is “distinct potentiation of the trembling and head twitches”; the trembling result was “distinct potentiation of the trembling and head twitches”.

Take `CC(C)NCC(O)c1cc(O)cc(O)c1` (stereo not drawn) [ociprenaline, reference compound]: in data set [12], the head twitches result is on record as “no modification of the trembling or head twitches” and the trembling entry is reported as “no modification of the trembling or head twitches”.

As to `CC(NCCc1ccc(O)cc1)C(O)c1ccc(O)cc1` (stereo not drawn) [ritodrine, reference compound], in data set [12], the head twitches result is “no modification of the head twitches” and the trembling result is “moderate potentiation of the trembling”.

As to `CC(C)(C)NCC(O)c1ccc(O)c(CO)c1` (stereo not drawn) [salbutamol, reference compound], in data set [12], the head twitches entry is “no modification of the head twitches” and the trembling entry was “moderate potentiation of the trembling”.

Regarding `CC(C)(C)NCC(O)c1cc(O)cc(O)c1` (stereo not drawn) [terbutaline, reference compound], in data set [12], the head twitches result is listed as “no modification of the trembling or head twitches” and the trembling entry is given as “no modification of the trembling or head twitches”.

For the origin of these results see patent publication US4774248A, “Methods of treating depression and depressive states using 5-phenyl-1,4,5,6-tetrahydropyrimidine derivatives” (priority 1985, dated 1988).
